Reference: ChEMBL document CHEMBL6127088, “Novel 2-aminothiazole analogues both as polymyxin E synergist and antimicrobial agent against multidrug-resistant Gram-positive bacteria” (2024)
In brackets after ≈: the same amount, converted by molar mass. Activity calls are given as the source filed them. The rule behind the calls is not given here.

Assays:
[1] = test system: Cell membrane; assay: Disruption of cell membrane integrity in Acinetobacter baumannii ATCC 19606 assessed as displacement of outer membrane at 4 microg/ml incubated for 1 hrs by TEM analysis; type: subcellular; settings: dose 4.0 µg/ml
[2] = test system: Klebsiella pneumoniae; assay: Antibacterial activity against Klebsiella pneumoniae KPN 943 incubated for 18 hrs by broth microdilution method; type: functional
[3] = test system: Cell membrane; assay: Disruption of cell membrane integrity in Acinetobacter baumannii ATCC 19606 assessed as outer membrane expansion at 4 microg/ml incubated for 1 hrs by TEM analysis; type: subcellular; settings: dose 4.0 µg/ml
[4] = test system: Pseudomonas aeruginosa; assay: Synergistic antibacterial activity against Pseudomonas aeruginosa PAE 3887 assessed as fold change in polymyxin-E MIC incubated for 18 hrs by broth microdilution method relative to polymyxin-E alone; type: functional
[5] = test system: Klebsiella pneumoniae; assay: Synergistic antibacterial activity against Klebsiella pneumoniae SIPI-KPN-1712 assessed as fold change in polymyxin-E MIC incubated for 18 hrs by broth microdilution method relative to polymyxin-E alone; type: functional
[6] = test system: Staphylococcus aureus; assay: Antibacterial activity against Staphylococcus aureus S1-1-38 assessed as inhibition of bacterial growth incubated for 18 hrs by broth microdilution method; type: functional
[7] = test system: Lacticaseibacillus rhamnosus; assay: Antibacterial activity against Lactobacillus rhamnosus assessed as inhibition of bacterial growth incubated for 18 hrs by broth microdilution method; type: functional
[8] = test system: Acinetobacter baumannii; assay: Synergistic antibacterial activity against Acinetobacter baumannii ATCC 19606 assessed as fractional inhibitory concentration index at 4 microg/ml incubated for 18 to 20 hrs by chequerboard assay; type: functional; settings: dose 4 µg/ml; time 18-20 hrs
[9] = test system: Klebsiella pneumoniae; assay: Synergistic antibacterial activity against Klebsiella pneumoniae KPN 1617 assessed as fractional inhibitory concentration index at 4 microg/ml incubated for 18 to 20 hrs by chequerboard assay; type: functional; settings: dose 4 µg/ml; time 18-20 hrs
[10] = test system: Acinetobacter baumannii; assay: Antibacterial activity against Acinetobacter baumannii ATCC 19606 assessed as inhibition of bacterial growth at 4 microg/ml incubated for overnight in presence of 0.25 microg/ml polymyxin-E and measured with in 8 hrs by time-kill assay; type: functional, organism-based; settings: dose 4.0 µg/ml
[11] = test system: Klebsiella pneumoniae; assay: Synergistic antibacterial activity against Klebsiella pneumoniae SIPI-KPN-1712 assessed as polymyxin-E MIC at 4 microg/ml incubated for 18 hrs by broth microdilution method; type: functional; settings: dose 4 µg/ml
[12] = test system: Acinetobacter baumannii; assay: Synergistic antibacterial activity against Acinetobacter baumannii ATCC 19606 assessed as fold change in polymyxin-E MIC incubated for 18 hrs by broth microdilution method relative to polymyxin-E alone; type: functional
[13] = test system: Enterococcus faecalis; assay: Antimicrobial activity against vancomycin-resistant Enterococcus faecalis ATCC 51299 assessed as minimum inhibitory concentration incubated for 18 hrs by broth microdilution method; type: functional
[14] = test system: Cell membrane; assay: Induction of outer membrane disruption in Acinetobacter baumannii ATCC 19606 assessed as decrease in fluorescence intensity in presence of polymyxin-E by NPN dye based fluorescence analysis; type: subcellular
[15] = test system: Cell membrane; assay: Disruption of cell membrane integrity in Acinetobacter baumannii ATCC 19606 assessed as reduction in nucleoid boundaries at 4 microg/ml incubated for 1 hrs in presence of polymyxin-E by TEM analysis; type: subcellular; design: scale not given: the % may be the effect or the level left; settings: dose 4.0 µg/ml
[16] = test system: Acinetobacter baumannii; assay: Synergistic antibacterial activity against Acinetobacter baumannii ATCC 19606 assessed as polymyxin-E MIC at 4 microg/ml incubated for 18 hrs by broth microdilution method; type: functional; settings: dose 4 µg/ml
[17] = test system: Pseudomonas aeruginosa; assay: Synergistic antibacterial activity against Pseudomonas aeruginosa […] assessed as fold change in polymyxin-E MIC incubated for 18 hrs by broth microdilution method relative to polymyxin-E alone; type: functional
[18] = test system: Mycolicibacterium smegmatis; assay: Antibacterial activity against Mycobacterium smegmatis MC 2155 assessed as inhibition of bacterial growth incubated for 18 hrs by broth microdilution method; type: functional
[19] = test system: Staphylococcus aureus; assay: Antibacterial activity against Staphylococcus aureus S1-1-7 assessed as inhibition of bacterial growth incubated for 18 hrs by broth microdilution method; type: functional
[20] = test system: Staphylococcus aureus; assay: Antibacterial activity against Staphylococcus aureus SF 8300 assessed as inhibition of bacterial growth incubated for 18 hrs by broth microdilution method; type: functional
[21] = test system: Pseudomonas aeruginosa; assay: Antibacterial activity against Pseudomonas aeruginosa ATCC 13883 incubated for 18 hrs by broth microdilution method; type: functional
[22] = test system: Acinetobacter baumannii; assay: Synergistic antibacterial activity against Acinetobacter baumannii Ab 1613 assessed as fractional inhibitory concentration index at 4 microg/ml incubated for 18 to 20 hrs by chequerboard assay; type: functional; settings: dose 4 µg/ml; time 18-20 hrs
[23] = test system: Staphylococcus aureus; assay: Antibacterial activity against Staphylococcus aureus LAC assessed as inhibition of bacterial growth incubated for 18 hrs by broth microdilution method; type: functional
[24] = test system: Klebsiella pneumoniae; assay: Synergistic antibacterial activity against Klebsiella pneumoniae KPN 943 assessed as polymyxin-E MIC at 4 microg/ml incubated for 18 hrs by broth microdilution method; type: functional; settings: dose 4 µg/ml
[25] = test system: Bacillus subtilis; assay: Antimicrobial activity against Bacillus subtilis ATCC 20678 incubated for 18 hrs by broth microdilution method; type: functional
[26] = test system: Mycolicibacterium smegmatis; assay: Antibacterial activity against Mycobacterium smegmatis ATCC 704 assessed as inhibition of bacterial growth incubated for 18 hrs by broth microdilution method; type: functional
[27] = test system: Staphylococcus aureus; assay: Antibacterial activity against methicillin-resistant Staphylococcus aureus ATCC 43300 assessed as inhibition of bacterial growth at 0.5 to 1 microg/ml incubated for 0 to 8 hrs by time-kill assay; type: functional, organism-based; settings: dose 0.5-1 µg/ml, time 0-8 hrs
[28] = test system: Pseudomonas aeruginosa; assay: Antibacterial activity against Pseudomonas aeruginosa PAE 1051 incubated for 18 hrs by broth microdilution method; type: functional
[29] = test system: Staphylococcus aureus; assay: Antimicrobial activity against methicillin/ofloxacin-resistant Staphylococcus aureus ATCC 43300 assessed as minimum inhibitory concentration incubated for 18 hrs by broth microdilution method; type: functional
[30] = test system: Staphylococcus aureus; assay: Antibacterial activity against methicillin-resistant Staphylococcus aureus ATCC 43300 assessed as inhibition of bacterial growth at 0.5 to 1 microg/ml measured between 8 to 24 hrs by time-kill assay; type: functional, organism-based; settings: dose 0.5-1 µg/ml, time 8-24 hrs
[31] = test system: Acinetobacter baumannii; assay: Antibacterial activity against Acinetobacter baumannii ATCC 19606 assessed as inhibition of bacterial growth at 4 microg/ml incubated for overnight in presence of 0.25 microg/ml polymyxin-E by time-kill assay; type: functional, organism-based; settings: dose 4.0 µg/ml
[32] = test system: Pseudomonas aeruginosa; assay: Synergistic antibacterial activity against Pseudomonas aeruginosa PAE 1051 assessed as fractional inhibitory concentration index at 4 microg/ml incubated for 18 to 20 hrs by chequerboard assay; type: functional; settings: dose 4 µg/ml; time 18-20 hrs
[33] = test system: Staphylococcus aureus; assay: Antibacterial activity against Staphylococcus aureus NCTC 8325 assessed as inhibition of bacterial growth incubated for 18 hrs by broth microdilution method; type: functional
[34] = test system: Klebsiella pneumoniae; assay: Antibacterial activity against Klebsiella pneumoniae SIPI-KPN-1712 incubated for 18 hrs by broth microdilution method; type: functional
[35] = test system: Acinetobacter baumannii; assay: Synergistic antibacterial activity against Acinetobacter baumannii ATCC 19606 infected in female Balb/c mouse model assessed as survival rate of mouse at 64 mg/kg, iv administered every 12 hrs in presence of polymyxin-E and measured for 7 days; type: functional
[36] = test system: Acinetobacter baumannii; assay: Antibacterial activity against Acinetobacter baumannii ATCC 19606 assessed as inhibition of bacterial growth at 4 microg/ml incubated for overnight in presence of 0.25 microg/ml polymyxin-E and measured at 24 hrs by time-kill assay; type: functional, organism-based; settings: dose 4.0 µg/ml
[37] = test system: Staphylococcus aureus; assay: Antibacterial activity against Staphylococcus aureus S1-1-65 assessed as inhibition of bacterial growth incubated for 18 hrs by broth microdilution method; type: functional
[38] = test system: Acinetobacter baumannii; assay: Antibacterial activity against Acinetobacter baumannii Ab 1613 incubated for 18 hrs by broth microdilution method; type: functional
[39] = test system: Acinetobacter baumannii; assay: Antibacterial activity against Acinetobacter baumannii Ab 1611 incubated for 18 hrs by broth microdilution method; type: functional

C/C(=N\Nc1ccccn1)c1csc(Nc2cc(F)cc(C(F)(F)F)c2)n1
Activity [1]: Active
MIC [2]: > 128 µg/mL
Activity [3]: Active
fold change (FC) [4]: 16
fold change (FC) [5]: 16
MIC [6]: 0.5 µg/mL (≈ 1.26 µM)
MIC [7]: 0.5 µg/mL (≈ 1.26 µM)
fractional inhibitory concentration index (FICI) [8]: 0.094
fractional inhibitory concentration index (FICI) [9]: 0.094
Activity [10]: Active
MIC [11]: 2 µg/mL
fold change (FC) [12]: 16
MIC [13]: 1 µg/mL (≈ 2.53 µM)
Activity [14]: Active
Activity [15]: 100%
MIC [16]: 0.031 µg/mL
fold change (FC) [17]: 2
MIC [18]: 1 µg/mL (≈ 2.53 µM)
MIC [19]: 2 µg/mL (≈ 5.06 µM)
MIC [20]: 1 µg/mL (≈ 2.53 µM)
MIC [21]: > 128 µg/mL
fractional inhibitory concentration index (FICI) [22]: 0.281
MIC [23]: 1 µg/mL (≈ 2.53 µM)
MIC [24]: 0.125 µg/mL
MIC [25]: 1 µg/mL (≈ 2.53 µM)
MIC [26]: 1 µg/mL (≈ 2.53 µM)
Activity [27]: Active
MIC [28]: > 128 µg/mL
MIC [29]: 1 µg/mL (≈ 2.53 µM)
Activity [30]: inactive
Activity [31]: Active
fractional inhibitory concentration index (FICI) [32]: 0.281
MIC [33]: 0.5 µg/mL (≈ 1.26 µM)
MIC [34]: > 128 µg/mL
survival at 64 mg/kg [35]: 100%
Activity [36]: Active
MIC [37]: 4 µg/mL (≈ 10.1 µM)
MIC [38]: > 128 µg/mL
MIC [39]: > 128 µg/mL
